Laboratory results from US20260248852A1, “SYNTHETIC ANTIGEN RECEPTORS FOR COVALENT IMMUNE RECRUITERS AND METHODS AND USES THEREOF” (McMaster University, priority 2022, published 2026).
“Also recorded” adds a separate entry of the source.

Tests used:
[1] = test system: Anti-DNP CD28 CAR GDT cells; assay: Labeling time course of Anti-DNP CD28 CAR GDT cells with CIR/(N)CIR; assay type: binding, human; settings: 10 nM, 100 nM, 1 uM, up to 3 hours
Method: (§1) Engineered GDT-cells: PBMCs were seeded at 4E6 cells per well in a 24 well G-Rex plate in the presence of 1 ug/ml zoledronate and 1.5 ng/ml human IL2. Three days later, the cells were incubated overnight in a 24 well non tissue culture treated plate that was pre coated with retronectin and retrovirus supernatant containing viruses encoding either the Anti-DNP DAP12-SAR or the Anti-DNP CD28 CAR. The cells were then transferred back to the G-Rex plate and cultured for a further 11 days at which point, the cell product was collected, CD4/CD8 T cells were removed by magnetic selection and the purified engineered GDT cells were cryopreserved.
(§2) Flow cytometry: To assess the fraction of GDT cells which express the Anti-DNP synthetic antigen receptor, the cells were stained with the following antibodies/fluorophores: Myc biotin, streptavidin PE, vδ2 APC, TCR ab FITC, and CD3 BV605. The CD3 BV605, TCR ab FITC, and Vδ2 APC were used to specifically gate on Vδ2 GDT-cells. The anti-Myc biotin and streptavidin PE secondary were used to assess transduction level.
(§3) For labeling time-course studies, T-cells were incubated with varying concentrations (10 nM, 100 nM, 1 uM) of either DNP-Acyl Imidazole-Desthiobiotin or DNP-Desthiobiotin for different time periods up to 3 hours at room temperature in FACs buffer. […]

[2] = test system: Anti-DNP TAC T cells (anti-DNP scFv containing T-cells); assay: Labeling of Anti-DNP TAC ABT cells with CIR/(N)CIR, Streptavidin-PE flow cytometry; assay type: binding, human; settings: 1 uM; for labeling time course (binding): 10 nM, 100 nM, up to 3 hours at room temperature, washed; for covalent binding and labeling of T cells (Streptavidin-PE): Anti-DNP TAC ABT cells, overnight at 4 degrees, washed 3 times
Method: (§4) Labeling with CIR/(N)CIR: ABT-cells were labelled overnight at 4 degrees in T-cell media with 1 uM of either DNP-Acyl Imidazole-Desthiobiotin or DNP-Desthiobiotin. DNP-Glycine competitor was also added to some conditions with at 200 uM as a competitor to assess labelling specificity. After the overnight incubation the samples were washed 3 times with FACs buffer to remove any non-covalently bound molecule and stained with Streptavidin-PE to assess labelling. The samples were also stained with near IR Live/Dead, anti-CD4 Pacific Blue, and anti-CD8 Alexa fluor 700 to allow for appropriate gating on live ABT-cells. The samples were assessed for Streptavidin-PE labelling via flow cytometry.
For labeling time-course studies, T-cells were incubated with varying concentrations (10 nM, 100 nM, 1 uM) of either DNP-Acyl Imidazole-Desthiobiotin or DNP-Desthiobiotin for different time periods up to 3 hours at room temperature in FACs buffer. The “0” hour time point was the final time point and accounts for the 5-minute period needed to spike in CIR/(N)CIR and spin down to stop labelling. After adding DNP-Acyl Imidazole-Desthiobiotin or DNP-Desthiobiotin to all time points the cells were washed 3 times and stained for flow cytometry analysis as described above.
as §4, with “either DNP-SuFEx-Desthiobiotin,” for “either”, “αβ T-cells.” for “ABT-cells.”

[3] = test system: Anti-DNP DAP12-SAR GDT cells; assay: Labeling time course of Anti-DNP DAP12-SAR GDT cells with CIR/(N)CIR; assay type: binding, human; settings: 10 nM, 100 nM, 1 uM, up to 3 hours
Method: as §1, §2, §3

[4] = test system: PSMA transduced HEK-293 cells; assay: IFN-gamma / TNF-alpha production of Anti-DNP TAC ABT cells following stimulation with HEK-293 PSMA cells; assay type: cell-based, human; settings: Anti-DNP TAC ABT cells prelabelled 6 hours; co-culture 4 hours
Method: The cells were co-cultured together for 4 hours at 37 degrees. Golgi plug was added prior to the co-incubation to prevent cytokine secretion. To stop the activation 20 mM EDTA was added and incubated for 15 minutes. The cells were spun down, media was aspirated, and the cells were stored in 200 μL of cRPMI overnight at 4 degrees. The next day, the cells were surface stained with anti-CD4 Pacific Blue, anti-CD8 Alexa Fluor 700, and anti-NGFR Viobright FITC. The cells were then fixed and permeabilized using a fix/perm buffer solution. The cells were then intracellularly stained with anti-CD3 BV605, anti-TNF-alpha PE-CY7, and anti-IFN-gamma APC. Cells were then run on the Beckman Coulter Cytoflex flow cytometer. The percent of cells positive for TNF-alpha and IFN-gamma, as well as cells positive for both were recorded in the table for the separate CD4 and CD8 T-cell populations.

[5] = test system: HEK293-PSMA cells (PSMA expressing); assay: Cytokine production of engineered ABT cells following stimulation with HEK293-PSMA cells; assay type: cell-based, human
Method: Measuring cytokine production following stimulation with HEK-293 cells: In a 96 well round bottom plate, 4E5 HEK293-PSMA cells (PSMA expressing) or HEK293-WT cells were incubated with 4E5 Anti-DNP TAC ABT cells, Anti-DNP DAP12 SAR ABT cells, or Anti-CD28 CAR ABT-cells. […] To stop the activation 20 mM EDTA was added and incubated for 15 minutes. Cells were stained for surface expression of CD4 and CD8, fixed and permeabilized in Cytofix/Cytoperm buffer, and stained with APC-conjugated mouse anti-human interferon-gamma, and FITC-conjugated mouse anti-human tumor necrosis factor-alpha. Cells were then run on the Beckman Coulter Cytoflex flow cytometer. The percent of cells positive for tumor necrosis factor-alpha and interferon-gamma for CD4 and CD8 T-cell populations were graphed separately showing the same overall trends.

293-PSMA cells [6] = assay: CD69 and Nur77 expression of activated ABT cells with 293-PSMA cells; assay type: cell-based, human; settings: Anti-DNP TAC-T cells; 10 nM and 1 nM
Source text: Cells were stained for surface marker expression via Pacific Blue-conjugated mouse anti-human CD4, and AlexaFluor700-conjugated mouse anti-human CD8a, VioBright FITC-conjugated mouse anti-human NGFR, and anti-huCD69, fixed and permeabilized in Permiabilization concentrate diluted in permeabilization diluent, and stained intracellularly with PE-conjugated mouse anti-mouse Nur77.

[7] = test system: PSMA-positive LNCaP cells; assay: Anti-DNP GDT cell mediated killing of LNCaP cells (Incucyte); assay type: cell-based, human
Method: Measuring T cell mediated killing of LNCaP cells: LNCaP prostate cancer cells, which are prostate specific membrane antigen (PSMA) positive, were engineered with Nuclight Red lentivirus to produce cells with nuclear localized red fluorescence to allow for ease of imaging in these experiments. […] Samples were run in triplicate. The number of LNCaP cells per well at each time point was calculated using the Incucyte cell by cell analysis software and plotted. The area under the growth curve was used as a metric for tumor cell growth for this figure. The larger the area, the greater the tumor cell growth that occurred over the 3 days. The area under the curve for the LNCaP control and each condition were used to calculate the % cytotoxicity.

[8] = test system: PSMA transduced HEK-293 cells; assay: CD69 upregulation of DNP-TAC T cells following stimulation with HEK-293 PSMA cells; assay type: cell-based, human; settings: DNP-TAC T cells pre labelled 6 hours; co-culture overnight
Method: The cells were co-cultured together overnight at 37 degrees. To stop the activation, 20 mM EDTA was added and incubated for 15 minutes. The cells were spun down, media was aspirated, and the cells were stored in 200 μL of cRPMI at 4 degrees prior to staining. The cells were stained with Live-Dead Zombie Aqua, anti-CD3 BV605, anti-CD4 Pacific Blue, anti-CD8 Alexa Fluor 700, anti-NGFR Viobright FITC, and anti-CD69 BV650. Upon staining the cells were run on the Beckman Coulter Cytoflex flow cytometer and analyzed for CD69 expression.

[9] = test system: PSMA-positive LNCaP cells; assay: Anti-DNP TAC ABT cell mediated killing of LNCaP cells (Incucyte); assay type: cell-based, human
Method: Measuring T cell mediated killing of LNCaP cells: LNCaP prostate cancer cells, which are prostate specific membrane antigen (PSMA) positive, were engineered with Nuclight Red lentivirus to produce cells with nuclear localized red fluorescence to allow for ease of imaging in these experiments. […] The 3 components were co-cultured for 3 days with 4 images per well taken every 6 hours. Samples were run in triplicate. The number of LnCap cells per well at each time point was calculated using the Incucyte cell by cell analysis software and plotted. The area under the growth curve was used as a metric for tumor cell growth for this figure. The larger the area, the greater the tumor cell growth that occurred over the 3 days. The area under the curve for the LnCap control and each condition were used to calculate the % cytotoxicity.

293-PSMA cells [10] = assay: Proliferation of adapter functionalized engineered ABT cells (CellTrace Violet); assay type: cell-based, human
Method: Each engineered T cell was also cultured in media alone as a control to compare to. All proliferation assay samples were incubated for 3 days at 37° C. and 5% CO2. Cells were then stained with Live/Dead Fixable Near-IR stain, PerCP-Cy5.5-conjugated mouse anti-human CD8a, Alexa Fluor 700-conjugated mouse anti-human CD4, VioBright FITC-conjugated mouse anti-human NGFR, and BV605-conjugated mouse anti-human CD3. Flow cytometry data were acquired.

With CC1NC(=O)NC1CCCCCC(=O)NCCOCCOC(=O)NCCOCCNC(=O)CNc1ccc([N+](=O)[O-])cc1[N+](=O)[O-] (stereo not shown) [DNP-Desthiobiotin, reference compound] as the compound, how does the “labeling time course (binding)” value [1] read?
Its value is “minimal binding”.

And the “labeling time course (binding)” value [2]?
The value was “complete absence of binding”.

What about the “covalent binding and labeling of T cells (Streptavidin-PE)” value [2] of the same compound?
Its value is “cannot”.

And the “labeling time course (binding)” value [3]?
The value was “minimal binding”.

How did the “labeling time course (binding)” value [1] turn out when CC1NC(=O)NC1CCCCCC(=O)NCCOCCOCCOCCOC(=O)n1cnc(CCNC(=O)CNc2ccc([N+](=O)[O-])cc2[N+](=O)[O-])c1 (stereo not shown) [DNP-Acyl Imidazole-Desthiobiotin] was run?
The value was “rapid covalent binding”.

What about the “labeling time course (binding)” value [2] of the same compound?
The value was “rapid covalent binding”.

What about the “time to maximal loading of DNP-TAC T cells” value [2] of the same compound?
The value was “several hours”.

What about the “time until all Anti-DNP TAC T cells are loaded” value [2] of the same compound?
The value was ≤ 30 min.

And the “covalent binding and labeling of T cells (Streptavidin-PE)” value [2]?
The value was “can covalently bind and label”.

What about the “labeling time course (binding)” value [3] of the same compound?
Its value is “rapid covalent binding”.

With O=C(O)CC[C@H](NC(=O)N[C@@H](CCCCNC(=O)NCCOCCOCCOCCOCCOCCOCCOCCOC(=O)NCCOCCNC(=O)CNc1ccc([N+](=O)[O-])cc1[N+](=O)[O-])C(=O)O)C(=O)O [PSMA-(N)CIR, DNP-Glutamate-Urea-Lysine, reference compound] as the compound, how does the “production of IFN-gamma and TNF-alpha” value [4] read?
Its value is “failed to demonstrated any evidence of activation”.

What about the cytokine production ([5]; CD28-CAR T cells, highest concentration (100 nM)) of the same compound?
Its cytokine production is “equivalent levels of cytokine production”.

What about the cytokine production ([5]; DAP12-SAR T cells, 1, 10, 100 nM) of the same compound?
Its cytokine production is “some cytokine production was observed with higher concentrations; also recorded: could be activated by both CIR and (N)CIR”.

What about the cytokine production ([5]; TAC T cells, 1, 10, 100 nM) of the same compound?
Its cytokine production is “no cytokine production”.

And the “T cell activation (Nur77, CD69)” value (293-PSMA cells [6])?
Its value is “only the PSMA-CIR could elicit T cell activation”.

What about the “killing of LNCaP cells at limiting concentration” value ([7]; Anti-DNP CD28 CAR GDT cells, 10 nM or 1 nM adapter) of the same compound?
Its value is “inability of the PSMA-(N)CIR to effectuate killing”.

And the “tumor killing over a range of concentrations” value ([7]; Anti-DNP CD28 CAR GDT cells, 15 nM to 250 nM)?
The value was “diminished at lower levels”.

What about the “killing of LNCaP cells” value ([7]; Anti-DNP CD28 CAR GDT cells, 125 nM adapter) of the same compound?
The value was “could direct T cell cytotoxicity; also recorded: displayed tumor growth control”.

And the “killing of LNCaP cells” value ([7]; Anti-DNP DAP12-SAR GDT cells, 125 nM adapter)?
Its value is “unable to direct T cell cytotoxicity”.

And the “adapter concentration at which tumor killing is observed” value ([7]; Anti-DNP DAP12 SAR GDT cells)?
Its value is > 125 nM.

What about the “killing of LNCaP cells” value ([7]; Anti-DNP DAP12 SAR GDT cells, 250 nM (highest concentration)) of the same compound?
The value was “only weak killing”.

And the “killing of LNCaP cells after preincubation and wash” value ([7]; Anti-DNP DAP12 SAR and Anti-DNP CD28 CAR GDT cells, 1 uM adapter for 6 hours, washed, then co-culture)?
The value was “Only the T cells incubated with the PSMA-CIR retained the ability to kill”.

And the “killing of LNCaP cells” value ([7]; CD28 CAR GDT cells, 10 nM adapter)?
The value was “unable to elicit any killing”.

And the “LNCaP killing over a range of concentrations” value ([7]; both Anti-DNP DAP12-SAR GDT cells and Anti-DNP CD28 CAR GDT cells, 15.6 nM-250 nM)?
Its value is “killing diminished with lower concentrations”.

What about the “T cell activation based on upregulation of CD69” value [8] of the same compound?
The value was “failed to demonstrated any evidence of activation”.

What about the “killing of LNCaP cells” value ([9]; E:T 8:1, 15.63 nM to 125 nM, 3 days) of the same compound?
The value was “unable to direct T cell cytotoxicity; also recorded: did not promote killing of LNCaP cells at any concentration”.

And the “concentration effective at engaging tumor killing” value ([9]; E:T 8:1, 3 days)?
The value was > 125 nM.

What about the “T cell proliferation (percent divided)” value (293-PSMA cells [10]; Anti-DNP12 SAR T cells, 1 nM or 10 nM) of the same compound?
The value was “did not proliferate”.

And the “T cell proliferation (percent divided)” value (293-PSMA cells [10]; Anti-DNP DAP12 SAR T cells, 1 nM, 10 nM, or 100 nM)?
Its value is “little proliferation”.

What about the “T cell proliferation (percent divided)” value (293-PSMA cells [10]; Anti-DNP DAP12 SAR T cells, 100 nM) of the same compound?
Its value is “modest proliferation”.

And the “T cell proliferation (percent divided)” value (293-PSMA cells [10]; Anti-DNP TAC T cells, 1, 10, 100 nM, 3 days)?
The value was “failed to proliferate above background; also recorded: little proliferation”.
